From patent US20110224221A1, “HEMATOPOIETIC PROTECTION AGAINST IONIZING RADIATION USING SELECTIVE CYCLIN-DEPENDENT KINASE 4/6 INHIBITORS” (priority 2008, published 2011) come the findings set out here.

The test deals with KPTR1, KPTR4 and KPTR5 melanoma cell lines. The test can be described thus: Cell cycle analysis (BrdU incorporation in vitro) in murine melanoma cell lines. Format: cell-based. The settings on record: 24 hours treatment. From the text: FIG. 2C is a set of graphs showing the dose-response curves for cell cycle analysis in murine (KPTR1, KPTR4 and KPTR5 from TyrRAS+Ink4a/Arf−/−mice) melanoma cell lines. […] The percentage of cells in the G1 phase is indicated by the data shown in the closed squares. The percentage of cells in the S phase is shown by the data in the open triangles. The percentage of cells in the G2/M phase is indicated by the data in the open circles. The percentage of cells actively proliferating as marked by Ki67 positive staining is shown in closed diamonds. Error bars are +/− the standard error of the mean (SEM).
Cell Lines: KPTR1, KPTR4. and KPTR5 were derived from tumor-bearing TyrRAS+Ink4a/Arf−/− by standard procedures and cultured in RPMI+10% fetal bovine serum (FBS). Telomerized HDFs (tHDFs, also known as HS68) were cultured in DMEM+10% FBS with penicillin and streptomycin. […]
BrdU Incorporation in vitro: Cells were plated and allowed to adhere overnight or at least 6 hours prior to adding CDK4/6 inhibitor at the indicated concentrations. […] The cells were then washed, trypsinized, pelleted, fixed, permeabilized, stained, and measured on a flow cytometer as described in manufacturer directions for the BrdU Kit (BD Biosciences Pharmingen, San Diego, Calif., United States of America).

For the molecule `CC(=O)c1c(C)c2cnc(Nc3ccc(N4CCNCC4)cn3)nc2n(C2CCCC2)c1=O` [PD0332991, 6-acetyl-8-cyclopentyl-5-methyl-2-(5-piperazin-1-yl-pyridin-2-ylamino)-8H-pyrido-[2,3-d]-pyrimidin-7-one], the “sensitivity of derivative tumor cell lines in vitro” value is “insensitive”.
